Source: patent US12479895B2, “C-terminal CDNF and MANF fragments, pharmaceutical compositions comprising same and uses thereof” (MyNeuroCure Oy, priority 2018, dated 2025)

Columns and labels:
rat 6-OHDA model of PD = experiment: Neurorestoration study in 6-OHDA model of PD in rats; format: in vivo; settings: infused into the striatum starting 2 weeks after 6-OHDA lesioning; rotations up to 12 weeks post lesioning
ER stressed SCG neurons = experiment: Survival of tunicamycin-treated (ER stressed) SCG sympathetic neurons after microinjection; format: cell-based, mice; settings: for survived neurons as % compared to neurons grown in the presence of NGF: Table 1A (FIG. 14), microinjected into cytoplasm, tunicamycin 2 μM, CDNF (400); for Fold change of survived neurons compared to neurons injected with PBS: data of Table 1 divided by values of PBS
Summary of the method: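 Newborn mouse SCG neurons grown 5-6 days with 30 ng/ml NGF, then microinjected with CDNF (FL or C-terminal) plasmids (10 ng/ul, EGFP reporter) or proteins (200 ng/ul, Dextran Texas Red). Tunicamycin (2 μM) added next day. Fluorescent survivors counted blindly after 3 days as % of initial; compared with vector or PBS (ANOVA/Dunnett).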

dopamine neurons = experiment: Survival of TH-positive dopamine neurons in dissociated midbrain floor cultures; format: cell-based, mouse; settings: for survived neurons as % compared to neurons grown in the presence of GDNF: Table 3A (FIG. 15), 5 days; for Fold change of survived neurons compared to neurons grown without growth factors: data of Table 3 divided by values of no factor
Summary of the method: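 Dissociated E13.5 NMRI mouse midbrain floor neurons grown five days in DMEM/F12 with N2, with polypeptides at a range of concentrations, GDNF (100 ng/ml), or nothing. TH-immunopositive neurons were counted by imaging. Values are a percentage of GDNF-maintained TH-positive neurons, as mean ± SEM from at least three independent cultures.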

Substance	survived neurons as % compared to neurons grown in the presence of NGF (ER stressed SCG neurons; AVG of exp1-2)	survived neurons as % compared to neurons grown in the presence of NGF (ER stressed SCG neurons; exp1, counted after 3 days)	survived neurons as % compared to neurons grown in the presence of NGF (ER stressed SCG neurons; exp2, counted after 3 days)	Fold change of survived neurons compared to neurons injected with PBS (ER stressed SCG neurons; Table 2, AVG)	Fold change of survived neurons compared to neurons injected with PBS (ER stressed SCG neurons; Table 2, exp1)	Fold change of survived neurons compared to neurons injected with PBS (ER stressed SCG neurons; Table 2, exp2)	survived neurons as % compared to neurons grown in the presence of GDNF (dopamine neurons; AVG, 1 ng/ml)	survived neurons as % compared to neurons grown in the presence of GDNF (dopamine neurons; AVG, 10 ng/ml)	survived neurons as % compared to neurons grown in the presence of GDNF (dopamine neurons; AVG, 100 ng/ml)	survived neurons as % compared to neurons grown in the presence of GDNF (dopamine neurons; AVG, 1000 ng/ml)	survived neurons as % compared to neurons grown in the presence of GDNF (dopamine neurons; exp1, 1 ng/ml)	survived neurons as % compared to neurons grown in the presence of GDNF (dopamine neurons; exp1, 10 ng/ml)	survived neurons as % compared to neurons grown in the presence of GDNF (dopamine neurons; exp1, 100 ng/ml)	survived neurons as % compared to neurons grown in the presence of GDNF (dopamine neurons; exp1, 1000 ng/ml)	survived neurons as % compared to neurons grown in the presence of GDNF (dopamine neurons; exp2, 1 ng/ml)	survived neurons as % compared to neurons grown in the presence of GDNF (dopamine neurons; exp2, 10 ng/ml)	survived neurons as % compared to neurons grown in the presence of GDNF (dopamine neurons; exp2, 100 ng/ml)	survived neurons as % compared to neurons grown in the presence of GDNF (dopamine neurons; exp2, 1000 ng/ml)	survived neurons as % compared to neurons grown in the presence of GDNF (dopamine neurons; exp3, 1 ng/ml)	survived neurons as % compared to neurons grown in the presence of GDNF (dopamine neurons; exp3, 10 ng/ml)	also measured
CKGC [MANF4, reference compound]	–	–	–	–	–	–	–	–	–	–	–	–	–	–	–	–	–	–	–	–	efficacy on amphetamine-induced rotations (rat 6-OHDA model of PD): not effective
KYEKTLDLASVDLRKMRVAELKQILHSWGEECRACAEKTDYVNLIQELAP (listed as Homo sapiens) [pep7]	80.76 % NGF	76.67 % NGF	84.85 % NGF	2.19 Fold to PBS	2.24 Fold to PBS	2.14 Fold to PBS	70.12 % GDNF	76.13 % GDNF	72.36 % GDNF	79.07 % GDNF	67.76 % GDNF	63.47 % GDNF	62.89 % GDNF	64.02 % GDNF	73.36 % GDNF	83.50 % GDNF	79.82 % GDNF	86.37 % GDNF	69.24 % GDNF	81.41 % GDNF	survived neurons as % compared to neurons grown in the presence of GDNF (dopamine neurons; exp3, 100 ng/ml): 74.38 % GDNF; survived neurons as % compared to neurons grown in the presence of GDNF (dopamine neurons; exp3, 1000 ng/ml): 86.80 % GDNF; Fold change of survived neurons compared to neurons grown without growth factors (dopamine neurons; Table 4, AVG, 1 ng/ml): 1.14 fold; Fold change of survived neurons compared to neurons grown without growth factors (dopamine neurons; Table 4, AVG, 10 ng/ml): 1.23 fold; Fold change of survived neurons compared to neurons grown without growth factors (dopamine neurons; Table 4, AVG, 100 ng/ml): 1.17 fold; Fold change of survived neurons compared to neurons grown without growth factors (dopamine neurons; Table 4, AVG, 1000 ng/ml): 1.28 fold; Fold change of survived neurons compared to neurons grown without growth factors (dopamine neurons; Table 4, exp1, 1 ng/ml): 1.19 fold; Fold change of survived neurons compared to neurons grown without growth factors (dopamine neurons; Table 4, exp1, 10 ng/ml): 1.11 fold; Fold change of survived neurons compared to neurons grown without growth factors (dopamine neurons; Table 4, exp1, 100 ng/ml): 1.10 fold; Fold change of survived neurons compared to neurons grown without growth factors (dopamine neurons; Table 4, exp1, 1000 ng/ml): 1.12 fold; Fold change of survived neurons compared to neurons grown without growth factors (dopamine neurons; Table 4, exp2, 1 ng/ml): 1.16 fold; Fold change of survived neurons compared to neurons grown without growth factors (dopamine neurons; Table 4, exp2, 10 ng/ml): 1.32 fold; Fold change of survived neurons compared to neurons grown without growth factors (dopamine neurons; Table 4, exp2, 100 ng/ml): 1.27 fold; Fold change of survived neurons compared to neurons grown without growth factors (dopamine neurons; Table 4, exp2, 1000 ng/ml): 1.37 fold; Fold change of survived neurons compared to neurons grown without growth factors (dopamine neurons; Table 4, exp3, 1 ng/ml): 1.07 fold; Fold change of survived neurons compared to neurons grown without growth factors (dopamine neurons; Table 4, exp3, 10 ng/ml): 1.26 fold; Fold change of survived neurons compared to neurons grown without growth factors (dopamine neurons; Table 4, exp3, 100 ng/ml): 1.15 fold; Fold change of survived neurons compared to neurons grown without growth factors (dopamine neurons; Table 4, exp3, 1000 ng/ml): 1.34 fold
VDLRKMRVAELKQILHSWGEECRACAEKTDYVNLIQELAPKYAATHPKTEL (listed as Homo sapiens) [pep5]	81.78 % NGF	86.36 % NGF	77.19 % NGF	2.23 Fold to PBS	2.52 Fold to PBS	1.94 Fold to PBS	64.92 % GDNF	76.19 % GDNF	73.84 % GDNF	65.13 % GDNF	65.24 % GDNF	61.71 % GDNF	59.82 % GDNF	59.11 % GDNF	59.23 % GDNF	82.61 % GDNF	75.53 % GDNF	58.84 % GDNF	70.31 % GDNF	84.24 % GDNF	survived neurons as % compared to neurons grown in the presence of GDNF (dopamine neurons; exp3, 100 ng/ml): 86.17 % GDNF; survived neurons as % compared to neurons grown in the presence of GDNF (dopamine neurons; exp3, 1000 ng/ml): 77.44 % GDNF; Fold change of survived neurons compared to neurons grown without growth factors (dopamine neurons; Table 4, AVG, 1 ng/ml): 1.06 fold; Fold change of survived neurons compared to neurons grown without growth factors (dopamine neurons; Table 4, AVG, 10 ng/ml): 1.23 fold; Fold change of survived neurons compared to neurons grown without growth factors (dopamine neurons; Table 4, AVG, 100 ng/ml): 1.19 fold; Fold change of survived neurons compared to neurons grown without growth factors (dopamine neurons; Table 4, AVG, 1000 ng/ml): 1.05 fold; Fold change of survived neurons compared to neurons grown without growth factors (dopamine neurons; Table 4, exp1, 1 ng/ml): 1.14 fold; Fold change of survived neurons compared to neurons grown without growth factors (dopamine neurons; Table 4, exp1, 10 ng/ml): 1.08 fold; Fold change of survived neurons compared to neurons grown without growth factors (dopamine neurons; Table 4, exp1, 100 ng/ml): 1.05 fold; Fold change of survived neurons compared to neurons grown without growth factors (dopamine neurons; Table 4, exp1, 1000 ng/ml): 1.03 fold; Fold change of survived neurons compared to neurons grown without growth factors (dopamine neurons; Table 4, exp2, 1 ng/ml): 0.94 fold; Fold change of survived neurons compared to neurons grown without growth factors (dopamine neurons; Table 4, exp2, 10 ng/ml): 1.31 fold; Fold change of survived neurons compared to neurons grown without growth factors (dopamine neurons; Table 4, exp2, 100 ng/ml): 1.20 fold; Fold change of survived neurons compared to neurons grown without growth factors (dopamine neurons; Table 4, exp2, 1000 ng/ml): 0.93 fold; Fold change of survived neurons compared to neurons grown without growth factors (dopamine neurons; Table 4, exp3, 1 ng/ml): 1.09 fold; Fold change of survived neurons compared to neurons grown without growth factors (dopamine neurons; Table 4, exp3, 10 ng/ml): 1.30 fold; Fold change of survived neurons compared to neurons grown without growth factors (dopamine neurons; Table 4, exp3, 100 ng/ml): 1.33 fold; Fold change of survived neurons compared to neurons grown without growth factors (dopamine neurons; Table 4, exp3, 1000 ng/ml): 1.20 fold
